Laboratory results as given in patent US20110009420A1, “Histamine H3 Receptor Ligands” (HIGH POINT PHARMACEUTICALS, LLC, priority 2008, published 2011).
pKi: −log10 of the molar value. Structures can show the parent of a compound that is named as a salt. Where two headings read alike, the source gives them in different places.

What was measured:
[1] = target: T1, human histamine H3 receptor (Homo sapiens, UniProt Q9Y5N1); test: functional [35S]GTPγS binding assay (antagonist potency, inhibition of RAMHA-stimulated binding); assay type: biochemical; conditions: for [35S]GTPγS binding Ki(nM): functional Ki from full dose-response IC50 by Cheng-Prusoff, 10 nM RAMHA, re-synthesized compounds
T1 construct: expressed in transfected cells
T1 sequence (Q9Y5N1 whole entry): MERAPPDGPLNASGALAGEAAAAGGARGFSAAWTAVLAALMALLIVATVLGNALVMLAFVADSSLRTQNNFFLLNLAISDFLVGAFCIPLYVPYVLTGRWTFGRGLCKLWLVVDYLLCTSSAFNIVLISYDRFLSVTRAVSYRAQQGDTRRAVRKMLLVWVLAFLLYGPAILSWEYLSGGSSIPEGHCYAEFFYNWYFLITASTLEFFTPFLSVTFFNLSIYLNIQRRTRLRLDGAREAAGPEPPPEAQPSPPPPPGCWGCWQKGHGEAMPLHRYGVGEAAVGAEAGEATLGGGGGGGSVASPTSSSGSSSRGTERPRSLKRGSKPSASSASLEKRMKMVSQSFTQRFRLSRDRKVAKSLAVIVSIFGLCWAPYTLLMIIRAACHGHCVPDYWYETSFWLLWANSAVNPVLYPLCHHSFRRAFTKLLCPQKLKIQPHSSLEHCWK
Procedure: CHO-cells, stably expressing the human histamine H3 receptor, were harvested and membranes were prepared by threefold homogenization in a HEPES buffer (20 mM HEPES, 0.1-10 mM EDTA; pH 7.4). […] The hits were subsequently tested in full dose-response curves for functional IC50 determinations. After 2 h incubation at RT with gentle shaking of the plate, the plate was centrifuged at 370 RCF for 10 min and subsequently the radioactivity was counted in a Packard TopCount-NXT.
The IC50 values were calculated by non-linear regression analysis using GraphPad Prism.

[2] = read-out: [35S]GTPγS binding Ki

O=C(c1cccc(Oc2ccccc2)c1)N1CCN(CCCN2CCCCC2)CC1 (as salt: hydrochloride) [Compound A21B12]
melting point: 274 to 276 °C

O=C(c1cc2ccccc2o1)N1CCN(CCCN2CCCCC2)CC1 (as salt: hydrochloride) (hydrate or solvate) [Compound A12B12, Benzofuran-2-yl-(4-(3-(piperidin-1-yl)propyl)piperazin-1-yl)methanone, dihydrochloride]
melting point: 253 to 255 °C

O=C(c1cccc(Oc2ccccc2)c1)N1CCN(CCCN2CCCCC2)CC1 [Compound A21B12]
inhibition at 3.5 µM [1]: 62% | pKi [1, 2]: 7.64

COc1ccc2oc(C(=O)N3CCN(CCCN4CCCCC4)CC3)cc2c1 (as salt: hydrochloride) (hydrate or solvate) [Compound A13B12]
melting point: 255 to 257 °C

O=C(c1cc2ccccc2s1)N1CCN(CCCN2CCCCC2)CC1 (as salt: hydrochloride) (hydrate or solvate) [Compound A11B12]
melting point: 265 to 267 °C

O=C(Cc1c[nH]c2ccccc12)N1CCN(CCCN2CCCCC2)CC1 [Compound A14B12]
pKi [1]: 8.00 | inhibition at 3.5 µM [1]: 73% | [35S]GTPγS binding Ki(nM) [1]: low nanomolar range

O=C(c1cc2ccccc2o1)N1CCN(CCCN2CCCCC2)CC1 [Compound A12B12, Benzofuran-2-yl-(4-(3-(piperidin-1-yl)propyl)piperazin-1-yl)methanone, dihydrochloride]
inhibition at 3.5 µM [1]: 70% | pKi [1, 2]: 7.72

O=C(Cc1c[nH]c2ccccc12)N1CCN(CCCN2CCCCC2)CC1 (as salt: hydrochloride) [Compound A14B12]
melting point: 256 to 258 °C

O=C(c1cc2ccccc2s1)N1CCN(CCCN2CCCCC2)CC1 [Compound A11B12]
inhibition at 3.5 µM [1]: 57% | pKi [1, 2]: 7.46

O=C(Cc1ccc(-c2ccccc2)cc1)N1CCN(CCCN2CCCCC2)CC1 [Compound A15B12]
pKi [1]: 7.29 | inhibition at 3.5 µM [1]: 56%

O=C(CC1c2ccccc2-c2ccccc21)N1CCN(CCCN2CCCCC2)CC1 (as salt: hydrochloride) (hydrate or solvate) [Compound A18B12, 2-(9H-Fluoren-9-yl)-1-(4-(3-(piperidin-1-yl)propyl)piperazin-1-yl)ethanone, dihydrochloride]
melting point: 263 to 265 °C

O=C(CC1c2ccccc2-c2ccccc21)N1CCN(CCCN2CCCCC2)CC1 [Compound A18B12, 2-(9H-Fluoren-9-yl)-1-(4-(3-(piperidin-1-yl)propyl)piperazin-1-yl)ethanone, dihydrochloride]
inhibition at 3.5 µM [1]: 74% | [35S]GTPγS binding Ki(nM) [1]: low nanomolar range | pKi [1, 2]: 8.13

COc1ccc2oc(C(=O)N3CCN(CCCN4CCCCC4)CC3)cc2c1 [Compound A13B12]
inhibition at 3.5 µM [1]: 60% | pKi [1, 2]: 7.80

O=C(Cc1ccc(-c2ccccc2)cc1)N1CCN(CCCN2CCCCC2)CC1 (as salt: hydrochloride) (hydrate or solvate) [Compound A15B12]
melting point: 274 to 276 °C
